According to patent EP4755885A1 (Shanghai Hansoh Biomedical Co., Ltd., priority 2023, dated 2025):
pEC50: −log10 of the molar value.

What was measured:
human GLP-1 receptor = target: T1, human GLP-1 receptor (Homo sapiens, UniProt P43220); test: cAMP production in cell line stably transformed with human GLP1 receptor, 2 h co-incubation (HTRF); format: cell-based; settings: CHO-K1/GLP-1R/CRE-luc cells, stimulation for 2 h, read-out: EC50
T1 construct: expressed in transfected cells
Method: The purpose of this assay example is to test the ability of the compound to activate the human GLP-1 receptor on cell surface. The EC50 for stimulated cAMP production after activation characterizes the ability of the compound to activate the human GLP-1 receptor.
In this experiment, the compound and cells were co-incubated for 2 h.
Frozen cell line CHO-K1/GLP-1R/CRE-luc stably transformed with human GLP1 receptor was removed from a liquid nitrogen tank, and was placed in a 37°C water bath for rapid thawing. The cells were resuspended in DMEM/F12 medium, and after centrifugation, were washed once. The cells were resuspended in an experimental buffer, i.e., DMEM/F12 medium containing 0.1% casein. After centrifugation, cell density was adjusted using the experimental buffer. The cells were plated onto a 384-well plate at a density of 1500 cells/5 µL/well. Then, each well was added with 2.5 µL of IBMX working solution prepared with the buffer, the final concentration of IBMX being 0.5 mM, and 2.5 µL of a serially diluted compound sample (starting from […], 3-fold dilution, 12 concentrations). The plate was centrifuged at 1000 rpm for 1 min, and was stood for incubation at 37°C for 2 h. Determination was performed using the Cisbio cAMP - Gs Dynamic kit. cAMP-d2 and anti-cAMP-Eu3+-Cryptate were diluted 18-fold and 20-fold respectively with cAMP Lysis & Detection Buffer, and were respectively mixed homogeneously. Each well was added with 5 µL of diluted cAMP-d2 solution, and the plate was centrifuged at 1000 rpm for 1 min, and shaken for 30 seconds for homogeneous mixing. Then, each well was added with 5 µL of diluted anti-cAMP-Eu3+-Cryptate solution, and the plate was centrifuged at 1000 rpm for 1 min and was incubated in the dark at room temperature for 1 h. HTRF signals were read using the Biotek Synergy H1 microplate reader, the excitation wavelength being 320 nm and the emission wavelengths being 620 nm and 665 nm.
The signal-to-signal ratio was calculated (665 nm/620 nm * 10,000). Nonlinear fitting between the signal-to-signal ratio and the sample concentration was performed in GraphPad Prism 10 using a four-parameter equation to obtain the EC50 value.

[1] = Pharmacokinetic evaluation in mice, oral administration; format: in vivo, Balb/c mice; settings: p.o. 5 mg/kg, plasma; for AUC(0-inf) / AUC(0-t) / Cmax / Tmax / MRT inf: mouse, in vivo, po; for MRT inf: read-out: MRT 0-∞
Method: Balb/c mice were used as test animals to study the pharmacokinetic behavior of the compound of the present invention in mice (plasma) at a dose of 5 mg/kg administered orally and 1 mg/kg administered intravenously.
Balb/c mice, 3 per group, male.
(§1) Preparation of drug for oral administration: 10%PEG400/10%PG/80% glycine buffer (100 mM glycine, 64 Mm NaOH, […]) buffer.
10 ml of PEG400, 10 ml of PG, and 80 ml of (100 mM glycine, 64 Mm NaOH, pH = 9) were measured into a 100 ml volumetric flask, vortexed, mixed homogeneously, and sonicated to obtain a clear solution.
Single PK: An example compound was weighed into a 4 mL glass bottle. The solution was added, and sonication was performed for 10 min to obtain a colorless clear solution having a concentration of 0.5 mg/mL.
The solution was added, and sonication was performed for 10 min to obtain a colorless clear solution having a concentration of 0.5 mg/mL.
Three Balb/c mice, male, respectively administered p.o. after fasting overnight, at a dose of 5 mg/kg and in an administration volume of 10 mL/kg.
The blood samples were placed in EDTA-K2 anticoagulant tubes and centrifuged at 6000 rpm at 4°C for 6 min to separate plasma, which was stored at -80°C. The mice were fed 4 h after administration.
(§2) • 1) 40 µL of a plasma sample was added with 160 µL of acetonitrile for precipitation, and after mixing, the mixture was centrifuged at 3500 × g for 5 to 20 min. • 2) The supernatant solution after treatment was taken for LC/MS/MS analysis of the concentration of the test compound. The LC/MS/MS analysis instrument was AB Sciex API 4000 Qtrap.
• Liquid phase condition: Shimadzu LC-20AD pump • Chromatographic column: Agilent ZORBAX XDB-C18 (50×2.1 mm, 3.5 µm) Mobile phase: Solution A was 0.1% formic acid aqueous solution, and Solution B was acetonitrile • Flow rate: 0.4 mL/min • Elution time: 0-4.0 min, the eluent was as follows:
Main pharmacokinetic parameters were calculated using WinNonlin 6.1.

[2] = Pharmacokinetic evaluation in beagles, oral administration; format: in vivo; settings: p.o. 2 mg/kg, plasma; for MRT inf: read-out: MRT 0-∞
Method: Beagles were used as test animals to study the pharmacokinetic behavior of the compound of the present invention, administered orally at a dose of 2 mg/kg, in beagles (plasma).
Beagles, 3 per group, male.
as §1
Single PK: The compound of the present invention was weighed into a 100 mL glass bottle, and the solution was added. The pH was first adjusted with 1 M NaOH until the compound dissolves to obtain a clear solution, and then the pH was readjusted to pH 9.0-9.5 with 1 M HCl. Sonication was performed for 10 min to obtain a colorless clear solution having a concentration of 0.4 mg/mL.
Three beagles, male, respectively administered p.o. after fasting overnight, at a dose of 2 mg/kg and in an administration volume of 5 mL/kg.
Blood collection: 0.3 mL of blood was collected from the forelimb vein of the beagles before administration and at 0.25, 0.5, 1, 2, 4, 6, 8, and 24 h after administration. The blood samples were placed in EDTA-K2 anticoagulant tubes and centrifuged at 6000 rpm at 4°C for 6 min to separate plasma, which was stored at -80°C. The beagles were fed 4 h after administration.
as §2
• Liquid phase condition: Shimadzu LC-20AD pump • Chromatographic column: Agilent ZORBAX XDB-C18 (50×2.1 mm, 3.5 µm) Mobile phase: Solution A was 0.1% formic acid aqueous solution, and Solution B was acetonitrile • Flow rate: 0.4 mL/min • Elution time: 0-4.0 min, the eluent was as follows: […]

[3] = not marked single PK (cassette PK)

T1 sequence (P43220 24-463): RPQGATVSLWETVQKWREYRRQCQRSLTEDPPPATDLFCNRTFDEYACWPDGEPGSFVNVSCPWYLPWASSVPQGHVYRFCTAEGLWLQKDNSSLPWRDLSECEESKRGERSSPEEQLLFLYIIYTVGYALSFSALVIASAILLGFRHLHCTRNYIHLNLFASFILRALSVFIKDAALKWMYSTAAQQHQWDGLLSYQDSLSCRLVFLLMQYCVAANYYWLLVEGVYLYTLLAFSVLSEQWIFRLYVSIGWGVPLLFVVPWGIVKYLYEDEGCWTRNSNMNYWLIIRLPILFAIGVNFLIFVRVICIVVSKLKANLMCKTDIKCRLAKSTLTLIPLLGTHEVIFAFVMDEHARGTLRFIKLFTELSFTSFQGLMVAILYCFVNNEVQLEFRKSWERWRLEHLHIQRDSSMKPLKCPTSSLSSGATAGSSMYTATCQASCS

In the case of C#C[C@H]1C[C@]1(c1noc(=O)[nH]1)n1c(C(=O)N2CCc3nn(-c4cc(C)c(F)c(C)c4)c(-n4ccn(-c5cc6c7c(c5)CCC(=O)N7CCC6)c4=O)c3[C@@H]2C)cc2cc([C@H]3CCOC(C)(C)C3)ccc21 [Example 174], the pEC50 (human GLP-1 receptor) was 9.82.

C[C@H]1c2c(nn(-c3ccc(F)c(C4CC4)c3)c2-n2ccn(-c3ccc4c(c3)C3(CC3)C(=O)N4C)c2=O)CCN1C(=O)c1cc2cc([C@H]3CCOC(C)(C)C3)ccc2n1[C@@]1(c2noc(=O)[nH]2)C[C@@H]1C [Example 32] gave an AUC(0-inf) [1, 3] of 9320 ng·h/mL, an AUC(0-t) [1, 3] of 8990 ng·h/mL and a Cmax [1, 3] of 1040 ng/mL. It also gave a Tmax [1, 3] of 1 h, an MRT inf [1, 3] of 6.7 h and a tl/2 [1, 3] of 5.3 h.

Cc1cc(-n2nc3c(c2-n2ccn(-c4cc5c6c(c4)CCC(=O)N6CCC5)c2=O)[C@H](C)N(C(=O)c2cc4cc([C@H]5CCOC(C)(C)C5)ccc4n2[C@@]2(c4noc(=O)[nH]4)C[C@@H]2COC2CC2)CC3)cc(C)c1F [Example 200] gave a pEC50 (human GLP-1 receptor) of 10.05.

With “3-((3R,4r,5 S)-4-(5-((S)-2,2-dimethyltetrahydro-2H-pyran-4-yl)-2-((S)-3-(3-(4-fluoro-1-(methyl-d3)-1H-indazol-5-yl)-2-carbonyl-2,3-dihydro-1H-imidazol-1-yl)-2-(4-fluoro-3,5-dimethylbenzene)-4-methyl-4,5,6,7-tetrahydro-2H-pyrazolo[4,3-c]pyridine-5-carbonyl)-1H-indol-1-yl)tetrahydro-2H-pyran-4-yl)-1,2,4-oxadiazol-5(4H)-one [Example 338]” the pEC50 (human GLP-1 receptor) was 10.64, the “AUC 0-∞” value [2] was 21417 ng·h/mL and the “AUC(0-t)” value [2] was 20922 ng·h/mL. The Cmax [2] was 3915 ng/mL, the “MRT 0-∞” value [2] was 5.3 h and the Tmax [2] was 1.3 h. The t1/2 [2] was 4.4 h.

Cc1cc(-n2nc3c(c2-n2ccn(-c4cc5c6c(c4)OCCN6C(=O)CC5)c2=O)[C@H](C)N(C(=O)c2cc4cc([C@H]5CCOC(C)(C)C5)ccc4n2[C@@]2(c4noc(=O)[nH]4)C[C@@H]2C)CC3)cc(C)c1F [Example 43] showed a pEC50 (human GLP-1 receptor) of 10.22.

In the case of Cc1cc(-n2nc3c(c2-n2ccn(-c4ccc5c(cnn5C5CC5)c4F)c2=O)[C@H](C)N(C(=O)c2cc4cc([C@H]5CCOC(C)(C)C5)ccc4n2[C@@]2(c4noc(=O)[nH]4)C[C@@H]2C#N)CC3)cc(C)c1F [Example 190], the pEC50 (human GLP-1 receptor) was 10.40.

In the case of Cc1cc(-n2nc3c(c2-n2ccn(-c4ccc5c(cnn5C5CC5)c4F)c2=O)[C@H](C)N(C(=O)c2cc4cc([C@H]5CCOC(C)(C)C5)ccc4n2[C@@]2(c4noc(=O)[nH]4)C[C@@H]2COC(F)F)CC3)cc(C)c1F [Example 68], the pEC50 (human GLP-1 receptor) was 10.80.

Cc1cc(-n2nc3c(c2-n2ccn(-c4ccc5c(cnn5C5CC5)c4F)c2=O)[C@H](C)N(C(=O)c2cc4cc([C@H]5CCOC(C)(C)C5)ccc4n2[C@@]2(c4noc(=O)[nH]4)C[C@@H]2COc2ccccc2)CC3)cc(C)c1F [Example 187] gave a pEC50 (human GLP-1 receptor) of 10.10.

Molecule Cc1cc(-n2nc3c(c2-n2ccn(-c4ccc5c(cnn5C5CC5)c4F)c2=O)[C@H](C)N(C(=O)c2cc4cc([C@H]5CCOC(C)(C)C5)ccc4n2[C@@]2(c4noc(=O)[nH]4)C[C@@H]2C)CC3)cc(C)c1C#N [Example 49] has a pEC50 (human GLP-1 receptor) of 10.49, an AUC(0-inf) ([1]; single PK) of 16600 ng·h/mL and an AUC(0-t) ([1]; single PK) of 15700 ng·h/mL. The Cmax ([1]; single PK) was 2430 ng/mL, the Tmax ([1]; single PK) was 1 h and the MRT inf ([1]; single PK) was 7.1 h. The tl/2 ([1]; single PK) was 6.5 h.

In the case of [2H]C([2H])(OC1CC1)[C@H]1C[C@]1(c1noc(=O)[nH]1)n1c(C(=O)N2CCc3nn(-c4cc(C)c(F)c(C)c4)c(-n4ccn(-c5ccc6c(cnn6C6CC6)c5F)c4=O)c3[C@@H]2C)cc2cc([C@H]3CCOC(C)(C)C3)ccc21 [Example 194], the pEC50 (human GLP-1 receptor) was 11.05, the AUC(0-inf) [1, 3] was 32200 ng·h/mL and the AUC(0-t) [1, 3] was 19100 ng·h/mL. It also gave a Cmax [1, 3] of 1840 ng/mL, a Tmax [1, 3] of 2.7 h and an MRT inf [1, 3] of 26.6 h. For the same molecule, the tl/2 [1, 3] was 19.9 h, the AUC(0-inf) ([2]; dog, po) was 43700 ng·h/mL and the AUC(0-t) at 24 h ([2]; dog, po) was 40100 ng·h/mL. The half-life ([2]; dog, po) was 7.6 h, the Cmax ([2]; dog, po, read-out: Cmax) was 5830 ng/mL and the MRT inf ([2]; dog, po) was 8.3 h. The Tmax ([2]; dog, po, read-out: tmax) was 1 h.

Molecule Cc1cc(-n2nc3c(c2-n2ccn(-c4cc5c6c(c4)CCC(=O)N6CCC5)c2=O)[C@H](C)N(C(=O)c2cc4cc([C@H]5CCOC(C)(C)C5)ccc4n2[C@@]2(c4noc(=O)[nH]4)C[C@@H]2C)CC3)cc(C)c1F [Example 34] has a pEC50 (human GLP-1 receptor) of 9.96, an AUC(0-inf) ([1]; single PK) of 13300 ng·h/mL and an AUC(0-t) ([1]; single PK) of 12100 ng·h/mL. The Cmax ([1]; single PK) was 1510 ng/mL, the Tmax ([1]; single PK) was 1 h and the MRT inf ([1]; single PK) was 9 h. It also gave a tl/2 ([1]; single PK) of 7.8 h, an AUC(0-inf) ([2]; dog, po) of 9390 ng·h/mL and an AUC(0-t) at 24 h ([2]; dog, po) of 9090 ng·h/mL. The half-life ([2]; dog, po) was 5.1 h, the Cmax ([2]; dog, po, read-out: Cmax) was 1330 ng/mL and the MRT inf ([2]; dog, po) was 5.7 h. The Tmax ([2]; dog, po, read-out: tmax) was 1.7 h.

Cc1cc(-n2nc3c(c2-n2ccn(-c4ccc5c(cnn5C5CC5)c4F)c2=O)[C@H](C)N(C(=O)c2cc4cc([C@H]5CCOC(C)(C)C5)ccc4n2[C@@]2(c4noc(=O)[nH]4)C[C@@H]2COC2CC2)CC3)cc(C)c1C#N [Example 195] gave a pEC50 (human GLP-1 receptor) of 10.46.
